Test results reported in ChEMBL document CHEMBL1150473, “Schotten-Baumann acylation of N-debenzoyltaxol; an efficient route to N-acyl taxol analogues and their biological evaluation” (1994).

Columns and labels:
[1] = target: Tubulin alpha chain (Sus scrofa) (UniProt P02550); experiment: Evaluated for ability to initiate the polymerization of tubulin in the microtubule assembly assay expressed as ED50(compound) / ED50(taxol); type: functional
B16 = experiment: Cytotoxic ratio of inhibition of B16 melanoma cell proliferation after 40 hour incubation relative to taxol; type: functional, Mus musculus

Tubulin alpha chain (Sus scrofa), sequence (P02550 whole entry, looked up): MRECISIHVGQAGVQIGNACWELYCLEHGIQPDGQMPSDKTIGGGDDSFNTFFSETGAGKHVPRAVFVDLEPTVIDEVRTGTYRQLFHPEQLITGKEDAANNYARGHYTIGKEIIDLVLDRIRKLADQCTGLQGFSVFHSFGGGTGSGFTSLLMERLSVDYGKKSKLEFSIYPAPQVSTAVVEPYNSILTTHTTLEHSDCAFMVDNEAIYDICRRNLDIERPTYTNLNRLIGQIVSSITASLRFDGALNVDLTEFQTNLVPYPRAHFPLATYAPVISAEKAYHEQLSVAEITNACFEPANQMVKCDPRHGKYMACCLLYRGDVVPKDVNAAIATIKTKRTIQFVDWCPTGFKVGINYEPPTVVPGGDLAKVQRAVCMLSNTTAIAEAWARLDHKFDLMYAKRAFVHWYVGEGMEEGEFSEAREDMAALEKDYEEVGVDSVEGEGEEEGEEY

Row | ED50 ratio [1] | Structure (SMILES) | ED50 ratio (B16)
1 | 0.55 | CC(=O)O[C@@]12CO[C@@H]1C[C@H](O)[C@@]1(C)C(=O)[C@H](O)C3=C(C)[C@@H](OC(=O)[C@H](O)[C@@H](NC(=O)OC(C)(C)C)c4ccccc4)C[C@@](O)([C@@H](OC(=O)c4ccccc4)[C@H]21)C3(C)C.O.O.O [DOCETAXEL] | 0.23
2 | 1.18 | CC(=O)O[C@H]1C(=O)[C@@]2(C)[C@H]([C@H](OC(=O)c3ccccc3)[C@]3(O)C[C@H](OC(=O)[C@H](O)[C@@H](NC(=O)CC(C)C)c4ccccc4)C(C)=C1C3(C)C)[C@]1(OC(C)=O)CO[C@@H]1C[C@@H]2O | 2.65
3 | 4.6 | CC(=O)O[C@H]1C(=O)[C@@]2(C)[C@H]([C@H](OC(=O)c3ccccc3)[C@]3(O)C[C@H](OC(=O)[C@H](O)[C@@H](NC(=O)c4c(F)c(F)c(N=[N+]=[N-])c(F)c4F)c4ccccc4)C(C)=C1C3(C)C)[C@]1(OC(C)=O)CO[C@@H]1C[C@@H]2O | 14.8
4 | 1 | CC(=O)O[C@H]1C(=O)[C@@]2(C)[C@H]([C@H](OC(=O)c3ccccc3)[C@]3(O)C[C@H](OC(=O)[C@H](O)[C@@H](NC(=O)c4ccccc4)c4ccccc4)C(C)=C1C3(C)C)[C@]1(OC(C)=O)CO[C@@H]1C[C@@H]2O [PACLITAXEL] | 1
5 | 2.61 | CC(=O)O[C@H]1C(=O)[C@@]2(C)[C@H]([C@H](OC(=O)c3ccccc3)[C@]3(O)C[C@H](OC(=O)[C@H](O)[C@@H](NC(=O)C(C)(C)C)c4ccccc4)C(C)=C1C3(C)C)[C@]1(OC(C)=O)CO[C@@H]1C[C@@H]2O | 22.4
6 | 0.74 | CC(=O)O[C@H]1C(=O)[C@@]2(C)[C@H]([C@H](OC(=O)c3ccccc3)[C@]3(O)C[C@H](OC(=O)[C@H](O)[C@@H](NC(=O)CC(C)(C)C)c4ccccc4)C(C)=C1C3(C)C)[C@]1(OC(C)=O)CO[C@@H]1C[C@@H]2O | 3.13
